Results as given in PubChem BioAssay AID1919017 (Molecular Pharmacology Branch, DTP, NCI, 2023).

System: SW1271 complex spheroids with HUVEC/MSC, growth, % test/control
Test: Anticancer human tumor SW1271 cell line growth inhibition [AhR];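 further: spheroids exposed to agents for 7 days before readout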
Details: for IC50: curve of first compound; for viability, T/C: stronger effect = lower value
In short: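 Agents were dosed in half-log steps down from roughly clinical Cmax, or from 10 microM where Cmax was unknown, alone and with AhR antagonists. Read-out: percent test/control growth of tumor spheroids containing HUVEC and MSC stromal cells.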

[1] = second compound 0.1 µM, first compound 0.000949 µM
[2] = second compound 0.1 µM, first compound 0.003 µM
[3] = second compound 0.1 µM, first compound 0.00949 µM
[4] = second compound 0.1 µM, first compound 0.03 µM
[5] = second compound 0.1 µM, first compound 0.0949 µM
[6] = second compound 0.1 µM, first compound 0.3 µM
[7] = second compound 0.316 µM, first compound 0.000949 µM
[8] = second compound 0.316 µM, first compound 0.003 µM
[9] = second compound 0.316 µM, first compound 0.00949 µM
[10] = second compound 0.316 µM, first compound 0.03 µM
[11] = second compound 0.316 µM, first compound 0.0949 µM
[12] = second compound 0.316 µM, first compound 0.3 µM
[13] = second compound 1 µM, first compound 0.000949 µM
[14] = second compound 1 µM, first compound 0.003 µM
[15] = second compound 1 µM, first compound 0.00949 µM
[16] = second compound 1 µM, first compound 0.03 µM
[17] = second compound 1 µM, first compound 0.0949 µM
[18] = second compound 1 µM, first compound 0.3 µM
[19] = second compound 3.16 µM, first compound 0.000949 µM
[20] = second compound 3.16 µM, first compound 0.003 µM
[21] = second compound 3.16 µM, first compound 0.00949 µM
[22] = second compound 3.16 µM, first compound 0.03 µM
[23] = second compound 3.16 µM, first compound 0.0949 µM
[24] = second compound 3.16 µM, first compound 0.3 µM
[25] = second compound 10 µM, first compound 0.000949 µM
[26] = second compound 10 µM, first compound 0.003 µM
[27] = second compound 10 µM, first compound 0.00949 µM
[28] = second compound 10 µM, first compound 0.03 µM
[29] = second compound 10 µM, first compound 0.0949 µM
[30] = second compound 10 µM, first compound 0.3 µM

## CC(C)CC(NC(=O)C(Cc1ccccc1)NC(=O)c1cnccn1)B(O)O (stereo not given) + Cc1cncc(-c2nc(NCCc3c[nH]c4ccccc34)c3ncn(C(C)C)c3n2)c1
Second compound 0.1 µM
  IC50: 6.11 nM
Second compound 0.316 µM
  IC50: 5.7 nM
Second compound 1 µM
  IC50: 6.18 nM
Second compound 3.16 µM
  IC50: 5.61 nM
Second compound 10 µM
  IC50: 3.96 nM
[1]
  viability, T/C: 122%
[2]
  viability, T/C: 112%
[3]
  viability, T/C: 11.9%
[4]
  viability, T/C: 0.91%
[5]
  viability, T/C: 0.33%
[6]
  viability, T/C: 0.46%
[7]
  viability, T/C: 84.3%
[8]
  viability, T/C: 113%
[9]
  viability, T/C: 11.3%
[10]
  viability, T/C: 0.73%
[11]
  viability, T/C: 0.67%
[12]
  viability, T/C: 0.41%
[13]
  viability, T/C: 113%
[14]
  viability, T/C: 112%
[15]
  viability, T/C: 13.4%
[16]
  viability, T/C: 1.13%
[17]
  viability, T/C: 0.75%
[18]
  viability, T/C: 0.48%
[19]
  viability, T/C: 107%
[20]
  viability, T/C: 102%
[21]
  viability, T/C: 5.96%
[22]
  viability, T/C: 0.63%
[23]
  viability, T/C: 0.88%
[24]
  viability, T/C: 0.55%
[25]
  viability, T/C: 62.2%
[26]
  viability, T/C: 69.2%
[27]
  viability, T/C: 0.81%
[28]
  viability, T/C: 0.31%
[29]
  viability, T/C: 0.34%
[30]
  viability, T/C: 0.3%

## CCc1c2c(nc3ccc(O)cc13)-c1cc3c(c(=O)n1C2)COC(=O)[C@]3(O)CC + Cc1cncc(-c2nc(NCCc3c[nH]c4ccccc34)c3ncn(C(C)C)c3n2)c1
Second compound 0.1 µM
  IC50: > 300 nM
Second compound 0.316 µM
  IC50: > 300 nM
Second compound 1 µM
  IC50: 255 nM
Second compound 3.16 µM
  IC50: 162 nM
Second compound 10 µM
  IC50: 1.82 nM
[1]
  viability, T/C: 86.5%
[2]
  viability, T/C: 92.8%
[3]
  viability, T/C: 76.6%
[4]
  viability, T/C: 57.4%
[5]
  viability, T/C: 59.5%
[6]
  viability, T/C: 57.8%
[7]
  viability, T/C: 69.5%
[8]
  viability, T/C: 79.8%
[9]
  viability, T/C: 83%
[10]
  viability, T/C: 58.1%
[11]
  viability, T/C: 52.2%
[12]
  viability, T/C: 48.9%
[13]
  viability, T/C: 116%
[14]
  viability, T/C: 104%
[15]
  viability, T/C: 71%
[16]
  viability, T/C: 74.2%
[17]
  viability, T/C: 64.1%
[18]
  viability, T/C: 50.3%
[19]
  viability, T/C: 92%
[20]
  viability, T/C: 90.2%
[21]
  viability, T/C: 75.2%
[22]
  viability, T/C: 63.6%
[23]
  viability, T/C: 60.8%
[24]
  viability, T/C: 41.5%
[25]
  viability, T/C: 55.5%
[26]
  viability, T/C: 45%
[27]
  viability, T/C: 37.2%
[28]
  viability, T/C: 27.9%
[29]
  viability, T/C: 24%
[30]
  viability, T/C: 25.9%

## COc1cc(Nc2ncc3c(n2)-c2ccc(Cl)cc2C(c2c(F)cccc2OC)=NC3)ccc1C(=O)O + Cc1cncc(-c2nc(NCCc3c[nH]c4ccccc34)c3ncn(C(C)C)c3n2)c1
Second compound 0.1 µM
  IC50: > 10000 nM
Second compound 0.316 µM
  IC50: > 10000 nM
Second compound 1 µM
  IC50: > 10000 nM
Second compound 3.16 µM
  IC50: > 10000 nM
Second compound 10 µM
  IC50: < 31.6 nM
Second compound 0.1 µM, first compound 0.0316 µM
  viability, T/C: 92.7%
Second compound 0.1 µM, first compound 0.1 µM
  viability, T/C: 91.6%
Second compound 0.1 µM, first compound 0.316 µM
  viability, T/C: 98.6%
Second compound 0.1 µM, first compound 1 µM
  viability, T/C: 93.9%
Second compound 0.1 µM, first compound 3.16 µM
  viability, T/C: 78.3%
Second compound 0.1 µM, first compound 10 µM
  viability, T/C: 67.7%
Second compound 0.316 µM, first compound 0.0316 µM
  viability, T/C: 91%
Second compound 0.316 µM, first compound 0.1 µM
  viability, T/C: 87.8%
Second compound 0.316 µM, first compound 0.316 µM
  viability, T/C: 92%
Second compound 0.316 µM, first compound 1 µM
  viability, T/C: 91%
Second compound 0.316 µM, first compound 3.16 µM
  viability, T/C: 98.4%
Second compound 0.316 µM, first compound 10 µM
  viability, T/C: 57.5%
Second compound 1 µM, first compound 0.0316 µM
  viability, T/C: 81.5%
Second compound 1 µM, first compound 0.1 µM
  viability, T/C: 87.2%
Second compound 1 µM, first compound 0.316 µM
  viability, T/C: 88.2%
Second compound 1 µM, first compound 1 µM
  viability, T/C: 88.6%
Second compound 1 µM, first compound 3.16 µM
  viability, T/C: 81.3%
Second compound 1 µM, first compound 10 µM
  viability, T/C: 56.2%
Second compound 3.16 µM, first compound 0.0316 µM
  viability, T/C: 95.1%
Second compound 3.16 µM, first compound 0.1 µM
  viability, T/C: 87.5%
Second compound 3.16 µM, first compound 0.316 µM
  viability, T/C: 91.9%
Second compound 3.16 µM, first compound 1 µM
  viability, T/C: 102%
Second compound 3.16 µM, first compound 3.16 µM
  viability, T/C: 78.9%
Second compound 3.16 µM, first compound 10 µM
  viability, T/C: 67.9%
Second compound 10 µM, first compound 0.0316 µM
  viability, T/C: 36.1%
Second compound 10 µM, first compound 0.1 µM
  viability, T/C: 50.7%
Second compound 10 µM, first compound 0.316 µM
  viability, T/C: 49.5%
Second compound 10 µM, first compound 1 µM
  viability, T/C: 50.1%
Second compound 10 µM, first compound 3.16 µM
  viability, T/C: 42.5%
Second compound 10 µM, first compound 10 µM
  viability, T/C: 40.4%
